12 molecules from patent US11739098B2 (BRISTOL-MYERS SQUIBB COMPANY, priority 2017, dated 2023) can be followed below.

Where only a bound is given, the exact number is not on record here.

What all share (assay type): cell-based
One experiment addresses T1, human TLR7 (Homo sapiens, UniProt Q9NYK1).
T1 construct: host or cells: HEK-Blue cells (HEK293-derived reporter line)
T1 sequence (Q9NYK1 27-1049): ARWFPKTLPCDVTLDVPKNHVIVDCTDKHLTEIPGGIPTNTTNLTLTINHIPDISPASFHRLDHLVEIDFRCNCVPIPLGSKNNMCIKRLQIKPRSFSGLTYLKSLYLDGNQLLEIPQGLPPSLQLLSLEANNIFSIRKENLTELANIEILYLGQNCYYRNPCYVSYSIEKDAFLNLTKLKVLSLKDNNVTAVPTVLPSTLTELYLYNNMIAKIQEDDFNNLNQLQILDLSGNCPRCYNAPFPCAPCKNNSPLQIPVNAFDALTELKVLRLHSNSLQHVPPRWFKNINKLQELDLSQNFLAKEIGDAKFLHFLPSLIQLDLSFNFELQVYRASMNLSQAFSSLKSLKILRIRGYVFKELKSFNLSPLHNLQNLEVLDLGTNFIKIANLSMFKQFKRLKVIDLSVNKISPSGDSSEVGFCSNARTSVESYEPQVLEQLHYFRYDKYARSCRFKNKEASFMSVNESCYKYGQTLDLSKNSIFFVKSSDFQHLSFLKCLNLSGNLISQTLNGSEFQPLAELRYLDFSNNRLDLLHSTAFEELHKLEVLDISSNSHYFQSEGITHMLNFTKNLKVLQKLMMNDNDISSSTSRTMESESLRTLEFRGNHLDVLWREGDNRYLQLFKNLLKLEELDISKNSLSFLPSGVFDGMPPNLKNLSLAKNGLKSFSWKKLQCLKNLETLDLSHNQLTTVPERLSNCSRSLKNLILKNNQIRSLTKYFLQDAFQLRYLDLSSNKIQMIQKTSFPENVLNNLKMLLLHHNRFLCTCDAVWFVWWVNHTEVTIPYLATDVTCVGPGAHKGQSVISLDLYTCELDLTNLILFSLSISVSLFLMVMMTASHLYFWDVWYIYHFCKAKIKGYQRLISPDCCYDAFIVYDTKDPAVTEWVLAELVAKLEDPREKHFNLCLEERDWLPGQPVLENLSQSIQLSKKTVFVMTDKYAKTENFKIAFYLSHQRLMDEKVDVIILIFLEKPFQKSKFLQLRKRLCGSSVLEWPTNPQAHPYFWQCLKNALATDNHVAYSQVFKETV
The experiment is described as follows: TLR7 inhibition reporter assay (HEK-Blue cells, SEAP reporter, gardiquimod stimulation). The following applies: HEK-Blue cells overexpressing human TLR7, SEAP reporter, gardiquimod 7.5 μM. The method in brief: (§1)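 Agonists (final): TLR7 gardiquimod 7.5 μM; TLR8 R848 15.9 μM; TLR9 ODN2006 5 nM. HEK-Blue reporter cells, 30 min RT compound pre-incubation, 0.05 nM–50 μM dose range, 22 h at 37 °C, colorimetric SEAP detection medium. % inhibition relative to agonist+DMSO and known-inhibitor wells.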
A general note: A reporter such as luciferase makes a cellular process visible.

The target in another experiment is T2, human TLR8 (Homo sapiens, UniProt Q9NR97).
T2 construct: host or cells: HEK-Blue cells (HEK293-derived reporter line)
T2 sequence (Q9NR97 27-1041): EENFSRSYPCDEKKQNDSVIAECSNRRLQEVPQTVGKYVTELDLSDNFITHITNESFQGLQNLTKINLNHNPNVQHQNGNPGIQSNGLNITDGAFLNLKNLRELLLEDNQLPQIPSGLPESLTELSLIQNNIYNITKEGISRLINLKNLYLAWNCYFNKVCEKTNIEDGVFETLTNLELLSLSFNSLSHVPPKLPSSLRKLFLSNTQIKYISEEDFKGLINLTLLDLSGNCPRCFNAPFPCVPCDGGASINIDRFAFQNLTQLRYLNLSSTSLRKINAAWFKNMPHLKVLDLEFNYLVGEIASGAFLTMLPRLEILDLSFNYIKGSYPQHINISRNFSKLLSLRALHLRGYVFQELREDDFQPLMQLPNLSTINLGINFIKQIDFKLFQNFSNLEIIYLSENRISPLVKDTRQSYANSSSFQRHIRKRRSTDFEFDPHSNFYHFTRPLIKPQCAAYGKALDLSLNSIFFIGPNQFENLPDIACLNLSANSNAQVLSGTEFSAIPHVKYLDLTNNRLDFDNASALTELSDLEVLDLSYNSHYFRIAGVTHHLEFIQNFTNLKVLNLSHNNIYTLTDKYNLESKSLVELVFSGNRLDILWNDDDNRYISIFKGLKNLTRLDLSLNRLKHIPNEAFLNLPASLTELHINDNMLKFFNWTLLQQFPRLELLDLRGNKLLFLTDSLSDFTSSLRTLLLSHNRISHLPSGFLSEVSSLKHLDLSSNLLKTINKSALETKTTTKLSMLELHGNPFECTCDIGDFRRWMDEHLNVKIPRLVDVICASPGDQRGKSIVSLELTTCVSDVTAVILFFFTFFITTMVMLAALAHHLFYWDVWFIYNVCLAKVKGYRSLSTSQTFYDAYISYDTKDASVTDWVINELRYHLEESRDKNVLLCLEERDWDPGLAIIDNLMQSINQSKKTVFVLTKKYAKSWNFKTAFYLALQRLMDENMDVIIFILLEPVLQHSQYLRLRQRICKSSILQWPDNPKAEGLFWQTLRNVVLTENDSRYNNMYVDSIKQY
The experiment is described as follows: TLR8 inhibition reporter assay (HEK-Blue cells, SEAP reporter, R848 stimulation). Conditions: HEK-Blue cells overexpressing human TLR8, SEAP reporter, R848 15.9 μM. In a few lines: as §1

Another experiment addresses T3, human TLR9 (Homo sapiens, UniProt Q9NR96).
T3 construct: host or cells: HEK-Blue cells (HEK293-derived reporter line)
T3 sequence (Q9NR96 26-1032): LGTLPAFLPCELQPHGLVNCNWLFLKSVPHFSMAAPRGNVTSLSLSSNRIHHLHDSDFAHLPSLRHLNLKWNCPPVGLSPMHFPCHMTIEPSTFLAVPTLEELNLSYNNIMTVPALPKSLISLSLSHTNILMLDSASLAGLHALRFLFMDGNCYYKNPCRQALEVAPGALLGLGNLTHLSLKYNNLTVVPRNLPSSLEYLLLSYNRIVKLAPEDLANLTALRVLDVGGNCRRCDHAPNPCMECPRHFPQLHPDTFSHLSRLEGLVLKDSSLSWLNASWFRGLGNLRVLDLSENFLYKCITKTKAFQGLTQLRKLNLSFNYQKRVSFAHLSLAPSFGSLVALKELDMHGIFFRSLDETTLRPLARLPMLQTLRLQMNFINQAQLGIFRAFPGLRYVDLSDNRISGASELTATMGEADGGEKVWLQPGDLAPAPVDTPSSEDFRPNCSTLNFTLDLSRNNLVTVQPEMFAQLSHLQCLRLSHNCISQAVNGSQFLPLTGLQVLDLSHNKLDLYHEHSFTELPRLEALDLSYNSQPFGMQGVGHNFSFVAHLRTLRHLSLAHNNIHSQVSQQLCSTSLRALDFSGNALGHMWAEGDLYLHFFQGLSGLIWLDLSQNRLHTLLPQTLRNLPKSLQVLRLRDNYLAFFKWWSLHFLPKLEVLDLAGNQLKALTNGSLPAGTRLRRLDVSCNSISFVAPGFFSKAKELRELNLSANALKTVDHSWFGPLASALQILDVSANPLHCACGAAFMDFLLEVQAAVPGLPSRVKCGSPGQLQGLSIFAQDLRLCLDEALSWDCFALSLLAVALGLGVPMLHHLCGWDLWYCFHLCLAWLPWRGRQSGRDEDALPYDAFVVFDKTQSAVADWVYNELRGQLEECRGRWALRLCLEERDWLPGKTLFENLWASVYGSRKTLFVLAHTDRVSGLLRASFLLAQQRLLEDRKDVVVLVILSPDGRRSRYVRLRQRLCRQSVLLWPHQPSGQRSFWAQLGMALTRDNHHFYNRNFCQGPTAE
The experiment is described as follows: TLR9 inhibition reporter assay (HEK-Blue cells, SEAP reporter, ODN2006 stimulation). Conditions: HEK-Blue cells overexpressing human TLR9, SEAP reporter, ODN2006 5 nM. In a few lines:
as §1

In the case of `CC(C)c1c(-c2cc(C(F)(F)F)c3nccn3c2)[nH]c2ccc(C3CCN(CC(=O)N(C)C)CC3)cc12` [Example 372, 2-(4-(3-isopropyl-2-(8-(trifluoromethyl)imidazo[1,2-a]pyridin-6-yl)-1H-indol-5-yl)piperidin-1-yl)-N,N-dimethylacetamide], the IC50 was below 100 nM against human TLR7, below 100 nM against human TLR8 and 1000 to 50000 nM against human TLR9.

In the case of `CNC(=O)CN1CCC(c2ccc3[nH]c(-c4cc(C(F)(F)F)c5nccn5c4)c(C(C)C)c3c2)CC1` [Example 373, 2-(4-(3-isopropyl-2-(8-(trifluoromethyl)imidazo[1,2-a]pyridin-6-yl)-1H-indol-5-yl)piperidin-1-yl)-N-methylacetamide], the IC50 at human TLR7 is below 100 nM; on human TLR8 it was below 100 nM; on human TLR9, 1000 to 50000 nM.

`CNC(=O)CN1CCC(c2ccc3[nH]c(-c4cn5cc(C)nc5cc4C)c(C(C)C)c3c2)CC1` [Example 374, 2-(4-(2-(2,7-dimethylimidazo[1,2-a]pyridin-6-yl)-3-isopropyl-1H-indol-5-yl)piperidin-1-yl)-N-methylacetamide]: the IC50 against human TLR7 was below 100 nM; on human TLR8 it was 100 to 1000 nM; at human TLR9, 100 to 1000 nM.

Regarding `Cc1cn2cc(-c3[nH]c4ccc(C5CCN(CC(=O)N(C)C)CC5)cc4c3C(C)C)c(C)cc2n1` [Example 375, 2-(4-(2-(2,7-dimethylimidazo[1,2-a]pyridin-6-yl)-3-isopropyl-1H-indol-5-yl)piperidin-1-yl)-N,N-dimethylacetamide], the values for the IC50 against human TLR7, against human TLR8 and at human TLR9 were below 100 nM, 100 to 1000 nM and below 100 nM, respectively.

In the case of `Cc1cn2cc(-c3[nH]c4ccc(C5CCN(CC(=O)N(C)C)CC5)cc4c3C(C)C)cc(C(F)(F)F)c2n1` [Example 376, 2-(4-(3-isopropyl-2-(2-methyl-8-(trifluoromethyl)imidazo[1,2-a]pyridin-6-yl)-1H-indol-5-yl)piperidin-1-yl)-N,N-dimethylacetamide], the values for the IC50 at human TLR7, against human TLR8 and at human TLR9 were below 100 nM, 100 to 1000 nM and 100 to 1000 nM, respectively.

As for `CNC(=O)CN1CCC(c2ccc3[nH]c(-c4cc(C(F)(F)F)c5nc(C)cn5c4)c(C(C)C)c3c2)CC1` [Example 377, 2-(4-(3-isopropyl-2-(2-methyl-8-(trifluoromethyl)imidazo[1,2-a]pyridin-6-yl)-1H-indol-5-yl)piperidin-1-yl)-N-methylacetamide], the IC50 was below 100 nM against human TLR7, 100 to 1000 nM against human TLR8 and 1000 to 50000 nM against human TLR9.

As for `CNC(=O)CN1CCC(c2ccc3[nH]c(-c4cc(C)c5nn(C)cc5c4)c(C(C)C)c3c2)CC1` [Example 378, 2-(4-(2-(2,7-dimethyl-2H-indazol-5-yl)-3-isopropyl-1H-indol-5-yl)piperidin-1-yl)-N-methylacetamide], the IC50 was below 100 nM against human TLR7, 100 to 1000 nM against human TLR8 and 1000 to 50000 nM on human TLR9.

Take `Cc1cc(-c2[nH]c3ccc(C4CCN(CC(=O)N(C)C)CC4)cc3c2C(C)C)cc2cn(C)nc12` [Example 379, 2-(4-(2-(2,7-dimethyl-2H-indazol-5-yl)-3-isopropyl-1H-indol-5-yl)piperidin-1-yl)-N,N-dimethylacetamide]: the IC50 was below 100 nM on human TLR7, below 100 nM against human TLR8 and 1000 to 50000 nM against human TLR9.

Turning to `CC(C)c1c(-c2cc(Cl)c3ncccc3c2)[nH]c2ccc(C3CCN(CC(=O)N(C)C)CC3)cc12` [Example 380, 2-(4-(2-(8-chloroquinolin-6-yl)-3-isopropyl-1H-indol-5-yl)piperidin-1-yl)-N,N-dimethylacetamide], the IC50 at human TLR7 is below 100 nM; on human TLR8 it was below 100 nM; against human TLR9, 1000 to 50000 nM.

Regarding `CNC(=O)CN1CCC(c2ccc3[nH]c(-c4cc(Cl)c5ncccc5c4)c(C(C)C)c3c2)CC1` [Example 381, 2-(4-(2-(8-chloroquinolin-6-yl)-3-isopropyl-1H-indol-5-yl)piperidin-1-yl)-N-methylacetamide], the IC50 at human TLR7 is below 100 nM; against human TLR8, 100 to 1000 nM; against human TLR9, 1000 to 50000 nM.

In the case of `Cc1c(-c2[nH]c3ccc(C4CCN(CC(=O)N(C)C)CC4)cc3c2C(C)C)ccc2c1cnn2C` [Example 382, 2-(4-(2-(1,4-dimethyl-1H-indazol-5-yl)-3-isopropyl-1H-indol-5-yl)piperidin-1-yl)-N,N-dimethylacetamide], the IC50 on human TLR7 is below 100 nM; against human TLR8, below 100 nM; against human TLR9, 1000 to 50000 nM.

`CNC(=O)CN1CCC(c2ccc3[nH]c(-c4ccc(C)n5nc(C)nc45)c(C(C)C)c3c2)CC1` [Example 383, 2-(4-(2-(2,5-dimethyl-[1,2,4]triazolo[1,5-a]pyridin-8-yl)-3-isopropyl-1H-indol-5-yl)piperidin-1-yl)-N-methylacetamide]: the IC50 on human TLR7 lay in the range of 1000 to 50000 nM; against human TLR8, 100 to 1000 nM; against human TLR9, 1000 to 50000 nM.

What is called IC50 is the point on the concentration scale where inhibition reaches its midpoint. Read a high IC50 as a need for much substance.
